Assay: Particle size distribution (Malvern Mastersizer S, by volume)
Type: physicochemical
Settings: hydrochloride
Experimental: VI. Particle Size Distribution Method
The particle size for cinacalcet hydrochloride was measured using a Malvern Mastersizer S particle size analyzer with an MS1 Small Volume Sample Dispersion Unit stirred cell. A 300RF mm lens and a beam length of 2.4 mm were used. Samples for analysis were prepared by dispersing a weighed amount of cinacalcet hydrochloride (approximately 60 mg) in 20 mL of sample dispersant, previously prepared by dilution of 1.5 g of Soybean Lecithin to 200 mL with Isopar G. The suspension was delivered drop-wise to a background corrected measuring cell previously filled with dispersant (Isopar G) until the obscuration reached the desired level. Volume distributions were obtained for three times. After completing the measurements, the sample cell was emptied and cleaned, refilled with suspending medium, and the sampling procedure repeated again. For characterization, the values of D10, D50 and D90 (by volume) were specifically listed, each one being the mean of the nine values available for each characterization parameter.

particle size distribution D90 (v) (after milling): 24 μm
particle size distribution D90 (v) (after recrystallization from heptane-isobutylacetate): 263 μm
particle size distribution D90 (v) (after recrystallization from isobutylacetate): 47 μm
SMILES: C[C@@H](NCCCc1cccc(C(F)(F)F)c1)c1cccc2ccccc12.Cl [cinacalcet hydrochloride, N-[1-(R)-(−)-(1-naphthyl)ethyl]-3-[3-(trifluoromethyl)phenyl]-1-aminopropane hydrochloride]

— US20110295037A1, “PROCESSES FOR PREPARING CINACALCET HYDROCHLORIDE AND POLYMORPHIC FORMS THEREOF” (MEDICHEM, S.A., priority 2006, published 2011)
